From the NIST ThermoML archive (doi:10.1021/je400310h)

Experiment: mn = molality of the nth substance listed, in mol/kg
Details: 101 kPa, Liquid, Vibrating tube method

CCC[n+]1ccn(CCO)c1.[Cl-] [1-(2-hydroxylethyl)-3-propylimidazolium chloride] + O
mass density [kg/m3]
Details | 293.15 K | 298.15 K | 303.15 K
m1 = 0.01 | 998.4 | 997.35 | 995.88
m1 = 0.0505 | 999.68 | 998.47 | 997.08
m1 = 0.102 | 1001.01 | 999.89 | 998.4
m1 = 0.208 | 1004.05 | 1002.76 | 1001.15
m1 = 0.5535 | 1012.98 | 1011.56 | 1009.99
m1 = 1.175 | 1027.62 | 1025.68 | 1023.8
m1 = 2.103 | 1046.02 | 1043.76 | 1041.7
m1 = 3.23 | 1063.98 | 1061.54 | 1058.92
m1 = 4.772 | 1082.55 | 1079.86 | 1077.08
m1 = 5.992 | 1093.61 | 1090.78 | 1087.9
m1 = 7.003 | 1101.22 | 1098.33 | 1095.39

CCC[n+]1ccn(CC(=O)O)c1.[Cl-] [1-(carboxymethyl)-3-propylimidazolium chloride] + O
mass density [kg/m3]
Details | m1 = 0.0302 | m1 = 0.0505 | m1 = 0.1021 | m1 = 0.2084 | m1 = 0.5569 | m1 = 1.257 | m1 = 2.166 | m1 = 3.386 | m1 = 5.114 | m1 = 7.768
293.15 K | 999.68 | 1000.6 | 1002.96 | 1007.61 | 1021.7 | 1046.14 | 1071.45 | 1097.44 | 1123.69 | 1150.29
298.15 K | 998.52 | 999.44 | 1001.71 | 1006.08 | 1019.83 | 1044.05 | 1069.11 | 1094.76 | 1120.74 | 1147.15
303.15 K | 997.01 | 998 | 1000.1 | 1004.64 | 1018.22 | 1041.75 | 1066.6 | 1091.97 | 1117.73 | 1143.97

C[n+]1ccn(CC(=O)O)c1.[Cl-] [1-carboxymethyl-3-methylimidazolium chloride] + O
mass density [kg/m3]
Details | m1 = 0.0302 | m1 = 0.0505 | m1 = 0.1018 | m1 = 0.2072 | m1 = 0.5443 | m1 = 1.214 | m1 = 2.041 | m1 = 3.094 | m1 = 4.466 | m1 = 6.375
293.15 K | 999.87 | 1000.94 | 1003.6 | 1008.87 | 1024.61 | 1052.15 | 1080.57 | 1110.21 | 1140.75 | 1173
298.15 K | 998.71 | 999.76 | 1002.36 | 1007.5 | 1022.95 | 1050.32 | 1078.44 | 1107.83 | 1138.14 | 1170.21
303.15 K | 997.12 | 998.24 | 1000.9 | 1006.06 | 1021.26 | 1048.33 | 1076.13 | 1105.34 | 1135.4 | 1167.36
